Measurements from patent publication US20090029997A1, “Thiazole Derivatives and Use Thereof” (LABORATOIRES SERONO SA, priority 2006, published 2009).

How the values were obtained:
[1] = target: Human recombinant GST-PI3Kγ (Homo sapiens, UniProt P48736); assay: High throughput PI3K lipid kinase assay (SPA, neomycin-coated beads); type: biochemical; settings: 180 min at room temperature
From the text: a) High Throughput PI3K Lipid Kinase Assay (Binding Assay):
The efficacy of compounds of the invention in inhibiting the PI3K induced-lipid phosphorylation may be tested in the following binding assay.
The assay combines the scintillation proximity assay technology (SPA, Amersham) with the capacity of neomycin (a polycationic antibiotic) to bind phospholipids with high affinity and specificity. The Scintillation Proximity Assay is based on the properties of weakly emitting isotopes (such as ^3H, ^125I, ^33P). Coating SPA beads with neomycin allows the detection of phosphorylated lipid substrates after incubation with recombinant PI3K and radioactive ATP in the same well, by capturing the radioactive phospholipids to the SPA beads through their specific binding to neomycin.
To a 384 wells MTP containing 5 μl of the test compound of Formula (I) (solubilized in 6% DMSO; to yield a concentration of 100, 30, 10, 3, 1, 0.3, 0.1, 0.03, 0.01, 01 μM of the test compound), the following assay components are added. 1) 5 μl (58 ng) of Human recombinant GST-PI3Kγ (in Hepes 40 mM, pH 7.4, DTT 1 mM and ethyleneglycol 5%) 2) 10 μl of lipid micelles and 3) 10 μl of Kinase buffer ([^33P]γ-ATP 45 μM/60 nCi, MgCl2 30 mM, DTT 1 mM, β-Glycerophosphate 1 mM, Na3VO4 100 μM, Na Cholate 0.3%, in Hepes 40 mM, pH 7.4). After incubation at room temperature for 180 minutes, with gentle agitation, the reaction is stopped by addition of 60 μl of a solution containing 100 μg of neomycin-coated PVT SPA beads in PBS containing ATP 10 mM and EDTA 5 mM. The assay is further incubated at room temperature for 60 minutes with gentle agitation to allow binding of phospholipids to neomycin-SPA beads. After precipitation of the neomycin-coated PVT SPA beads for 5 minutes at 1500×g, radioactive PtdIns(3)P is quantified by scintillation counting in a Wallac MicroBeta™ plate counter.
The values indicated in Table I below refer to the IC50 (μM) with respect to PI3Kγ, i.e. the amount necessary to achieve 50% inhibition of said target. Said values show a considerable inhibitory potency of thiazole compounds with regard to PI3Kγ.

[2] = test system: Class I PI3-kinases; settings: Fruman et al., 1998; read-out: IC50 against each of the various Class I PI3-kinases; cited from earlier work
[3] = test system: Akt/PKB phosphorylation in Raw 264-7 macrophages; assay: Cell based ELISA of Akt/PKB phosphorylation after Complement 5a stimulation; settings: Mus musculus, RAW264.7, 50 nM Complement 5a for 5 minutes, inhibitor pretreatment 20 minutes, read-out: Cell Assay (P-Akt, Elisa) IC50
Experimental: b) Cell Based ELISA to Monitor PI3K Inhibition:
The efficacy of compounds of the invention in inhibiting the PI3K induced Akt/PKB phosphorylation may be tested in the following cell based assay.
Measurement of Akt/PKB phosphorylation in macrophages after stimulation with Complement 5a: Raw 264: Raw 264-7 macrophages (cultured in DMEM-F12 medium containing 10% Fetal Calf serum and antibiotics) are plated at 20'000 cells/well in a 96 MTP 24 h before cell stimulation. Prior to the stimulation with 50 nM of Complement 5a during 5 minutes, Cells are serum starved for 2 h, and pretreated with inhibitors for 20 minutes. After stimulation cells are fixed in 4% formaldehyde for 20 minutes and washed 3 times in PBS containing 1% Triton X-100 (PBS/Triton). […] Next, phosphorylated Akt/PKB is detected by an overnight incubation at 4° C. with primary antibody (anti phospho Serine 473 Akt IHC, Cell Signaling) diluted 800-fold in PBS/Triton, containing 5% bovine serum albumin (BSA). After 3 washes in PBS/Triton, cells are incubated for 60 minutes with a peroxidase conjugated goat-anti-rabbit secondary antibody (1/400 dilution in PBS/Triton, containing 5% BSA), washed 3 times in PBS/Triton, and 2 times in PBS and further incubated in 100 μl of luminescent substrate reagent solution (Pierce) for 2 minutes, followed by the reading (1 s/well). […]

Human recombinant GST-PI3Kγ, sequence (P48736 whole entry): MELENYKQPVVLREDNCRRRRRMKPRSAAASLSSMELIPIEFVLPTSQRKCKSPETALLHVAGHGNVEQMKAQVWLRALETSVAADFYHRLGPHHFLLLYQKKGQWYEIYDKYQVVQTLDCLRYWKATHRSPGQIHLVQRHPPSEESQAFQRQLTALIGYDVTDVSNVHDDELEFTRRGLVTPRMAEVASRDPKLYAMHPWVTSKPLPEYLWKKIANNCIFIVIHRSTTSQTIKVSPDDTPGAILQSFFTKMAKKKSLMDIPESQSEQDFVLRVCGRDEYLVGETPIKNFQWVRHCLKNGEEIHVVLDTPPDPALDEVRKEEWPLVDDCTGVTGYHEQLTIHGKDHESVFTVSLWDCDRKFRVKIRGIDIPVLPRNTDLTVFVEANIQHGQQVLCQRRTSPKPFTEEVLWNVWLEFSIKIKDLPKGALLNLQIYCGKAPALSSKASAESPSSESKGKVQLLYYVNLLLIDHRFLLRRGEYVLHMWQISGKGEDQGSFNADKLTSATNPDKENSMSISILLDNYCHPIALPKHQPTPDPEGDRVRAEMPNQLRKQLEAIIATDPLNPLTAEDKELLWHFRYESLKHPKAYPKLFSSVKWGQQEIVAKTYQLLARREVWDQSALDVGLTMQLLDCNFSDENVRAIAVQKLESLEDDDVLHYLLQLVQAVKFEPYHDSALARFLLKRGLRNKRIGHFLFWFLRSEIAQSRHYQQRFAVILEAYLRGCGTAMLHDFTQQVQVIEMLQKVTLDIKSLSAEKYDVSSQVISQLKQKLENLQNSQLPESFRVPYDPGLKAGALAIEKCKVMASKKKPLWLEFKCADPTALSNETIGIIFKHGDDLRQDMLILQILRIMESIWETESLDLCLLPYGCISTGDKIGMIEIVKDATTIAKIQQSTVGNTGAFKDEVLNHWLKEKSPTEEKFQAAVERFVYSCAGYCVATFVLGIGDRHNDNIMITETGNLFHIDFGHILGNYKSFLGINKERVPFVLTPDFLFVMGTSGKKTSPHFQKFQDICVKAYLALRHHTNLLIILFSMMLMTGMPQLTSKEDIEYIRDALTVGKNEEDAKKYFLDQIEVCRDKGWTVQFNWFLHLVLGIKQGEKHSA

Compound	IC50 [1]	IC50 [2]	IC50 [3]
CC(=O)Nc1nc(C)c(-c2cnn(C)c2)s1 [Example 1, N-[4-methyl-5-(1-methyl-1H-pyrazol-4-yl)-1,3-thiazol-2-yl]acetamide]	1340 nM		
wortmannin		1 to 10 nM	
CC(=O)Nc1nc(C)c(-c2cnn(C(=O)NCCN(C)C)c2)s1 [Example 5, 4-[2-(acetylamino)-4-methyl-1,3-thiazol-5-yl]-N-[2-(dimethylamino)ethyl]-1H-pyrazole-1-carboxamide]	1230 nM		
CC(=O)Nc1nc(C)c(-c2cnn(S(=O)(=O)c3ccc(C(=O)O)cc3)c2)s1 [Example 14, 4-({4-[2-(acetylamino)-4-methyl-1,3-thiazol-5-yl]-1H-pyrazol-1-yl}sulfonyl)benzoic acid]	708 nM		
CC(=O)Nc1nc(C)c(-c2cnn(S(=O)(=O)c3cn(C)cn3)c2)s1 [Example 8, N-(4-methyl-5-{1-[(1-methyl-1H-imidazol-4-yl)sulfonyl]-1H-pyrazol-4-yl}-1,3-thiazol-2-yl)acetamide]	111 nM		850 nM
CC(=O)Nc1nc(C)c(-c2cn[nH]c2)s1 [Example 3, N-[4-methyl-5-(1H-pyrazol-4-yl)-1,3-thiazol-2-yl]acetamide]	413 nM		
COc1ccc(S(=O)(=O)n2cc(-c3sc(NC(C)=O)nc3C)cn2)cn1 [Example 7, N-(5-{1-[(6-methoxypyridin-3-yl)sulfonyl]-1H-pyrazol-4-yl}-4-methyl-1,3-thiazol-2-yl)acetamide]	282 nM		
